Residue numbers refer to the chain shown, from its start. Numbers in names are those of the source. Where “and” joins values, the source holds several entries; their conditions need not be identical. Equal entries are not always repeated. Where two headings read alike, the source gives them in different places.
T1: FACI-24 (Bos taurus, UniProt P07107, M25C)
T1 construct: made in house; host or cells: E. coli BL21(DE3)pLysS, pET3a vector
T1 sequence (P07107 2-87 M25C): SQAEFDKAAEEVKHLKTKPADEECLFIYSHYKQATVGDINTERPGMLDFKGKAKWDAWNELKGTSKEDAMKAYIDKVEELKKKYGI

T2: FACI53 (Bos taurus, UniProt P07107, A54C)
T2 construct: badan (6-bromoacetyl-2-dimethylaminonaphthalene) fluorophore on the introduced Cys-53; made in house; host or cells: E. coli BL21(DE3)pLysS, pET3a vector
T2 sequence (P07107 2-87 A54C): T1 sequence (P07107 2-87 M25C) with C24M, A53C

T3: native bovine ACBP (Bos taurus, UniProt P07107)
T3 sequence (P07107 1-87): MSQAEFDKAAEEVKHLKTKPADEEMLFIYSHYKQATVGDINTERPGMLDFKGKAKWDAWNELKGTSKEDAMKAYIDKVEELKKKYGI

B1: FACI-53: badan derivative of A53C-bovine ACBP (Fluorescent Acyl-CoA Indicator 53) (conjugate, UniProt P07107 2-87, looked up, variant A53C)
Acyl-CoA-binding protein: T1 sequence (P07107 2-87 M25C) with C24M, A53C
modifications: badan label
B2: FACI-24: badan derivative of M24C-bovine ACBP (Fluorescent modified Acyl-CoA Indicator 24) (conjugate, UniProt P07107 2-87, looked up, variant M24C)
Acyl-CoA-binding protein: T1 sequence (P07107 2-87 M25C)
modifications: badan label

Experiments:
FACI-24 [1] = target: T1, FACI-24; assay: Fluorescence emission change of FACI-24 on titration with CoA and acyl-CoA esters; format: binding, bovine; settings: for Downshift in emission maximum of FACI-24: emission maximum without ligand 510 nm, excitation 400 nm
Procedure: (§1) Quantitative determination of binding affinities (KD) were performed by isothermal titration micro calorimetry as previously described (Faergeman et. al., 1996; Biochemistry 35, 14118-14126). Qualitative evaluation of relative binding affinities were determined by isoelectrical focusing using the Pharmacia Fast Gel system according to the prescriptions given by the manufacture. Fluorescence emission changes induced by acyl-CoA binding to badan modified protein were determined as follows: 5 μl portions of acyl-CoAs were added from stock solutions disolved in binding buffer, (10 mM Hepes, 150 mM NaCL, 1 mM NaHPO4, pH 7.4) containing 3.4 μM Badan derivatized protein to a 1 ml 3.4 μM solution of the Badan derivatized ACBP in the same buffer. The fluorescence emission was measured on a SPEX FLOUROLOG (Industries Inc, Edison N.J., USA) with excitation at 400 nm and emission scan from 400 nm to 550 nm. The concentration of acyl-CoA in the aqueous phase was determined from the fluorescence emission sensitivities at 495 and 470 nm repectively essentially by the method described by (Grynkiewickz et. al.,1985, J. Biol. Chem. 260, 3440-3450) according to which:
(§2) Fluorescence titration emission spectra from 415 nm to 550 nm (excitation at 400 nm) were performed for CoA, C4:0-, C8:0-, C12:0-, C16:0-, and C20:0-CoA with all four mutated and badan modified proteins.
The emission maximum of FACI-24 without ligand added was 510 nm and titration with CoA, C4:0-, C8:0-, C12:0-, […], C16:0- and C20:0-CoA caused 0, 16, 34, 42, 46 and 46 nm downshift in emission maximum, respectively (results not shown). C16:0-CoA induced a 5,5 fold increase in emission at 464 nm (FIG. 10).
(§3) Titration of FACI with acyl-CoAs was done using a SPEX FLOUROLOG (Industries Inc, Edison N.J., USA) with excitation at 387 nm and emission at 460 nm, with both excitation and emission slits set to 4.5 nm. FACI (0.5-4.5 uM, as indicated) was dissolved in 1.5 ml binding buffer (10 mM HEPES 150 mM NaCl, 5 mM KCl, 1 mM Na2HPO4, pH 7.4) and titrated with a 10 μM acyl-CoA dissolved in binding buffer, with or without FACI added, as indicated. Fluorescence emission values (counts per second) measured without FACI added to the ligand stock solution were corrected for titrand dilution.

FACI-24 [2] = target: T1, FACI-24; assay: Fluorescence titration equilibrium binding analysis of CoA and acyl-CoA esters to FACI-24; set-up: species or system bovine
Procedure: Development of a mathematical expression describing the relationship between acyl-CoA concentration and FACI-24 fluorescence was performed essentially as by Richieri et al 1992, J Biol Chem, 267:23495-23501. However, where ligand binding to ADIFAB induces both a fluorescence intensity increase around 505 nm and a fluorescence intensity decrease around 432 nm, ligand binding to FACI-24 only causes an increase in fluorescence around 460 nm.
Derivatisation of an expression for the fluorescence value as a function of the acyl-coA concentration was done using the Scatchard equation as a starting point: [formula]
which has been used to fit the titration data.
The curves represent the best fit analysis from two independent experiment calculated and normalized as described above. The FACI-24 binding affinity increases dramatically when the acyl-chain length increases from C8 to C10 and C12, a smaller but significant drop in Kd is seen by increasing chain length from C12 to C14. C14 to C18 saturated acyl-CoA esters and C18:1-CoA binds with similar and very high affinities to FACI-24. In >0.1 M salt, FACI-24 binds acyl-CoAs with higher affinity and similar specificity as native unmodified bovine ACBP. The Kd for binding of C12-CoA and C16-CoA to native ACBP is 40 and 2.0 nM, respectively (Fulcery et al Biochemical, 1997, 325:423-428; Færgeman et al 1996, Biochemistry, 35:14118-14126). FACI-24 is highly specific for binding long-chain acyl-CoA esters.
as §3
Up to four parameters were fitted in this way, these were B, representing the point of saturation on the X axis, H, representing the maximum fluorescence, i.e. the fluorescence at saturating concentration of acyl-CoA, L, the minimum fluorescence value, i.e. the fluorescence of FACI-24 alone in buffer, and K, the Kd value lor the acyl-CoA in question. Initial estimates for the fittable parameters were typically: B=1, H=maximum fluorescence value measured, L=minimum fluorescence value measured (at acyl-CoA-concentration=0), and K as judged from the raw data, typically from 0.0001 uM to 0.1 uM for acyl-CoA longer than C10:0-CoA.
For each acyl-CoA at least two titrations and fittings were performed. To consider two or more titrations of the same acyl-CoA together and obtain a Kd value using all these titrations, both axes of the raw data were standardised using the fitted values of B, H and L in this way:
X axis standard=(raw X axis values)/Bfitted
Y axis standard=[(raw Y axis values)−Lfitted]/[Hfitted−Lfitted]
In this way all Y axis values should come to lie between 0 and 1 and the X axis value should be 1 at the point of saturation (FACI-24:acyl-CoA 1:1). Such adjusted data were pooled and fitted using DataFit. Typically, both H and B fitted to values close to 1 and L fitted to values close to 0. K was typically fitted to values somewhere between the two values obtained for the raw data.
This could be overcome by removing B from the fittable parameters list and instead setting it to a constant value of 1 and fitting again. This was typically done for both the raw and the standardised data.

FACI53 [3] = target: T2, FACI53; assay: Fluorescence emission change of FACI-53 on titration with CoA and acyl-CoA esters; format: binding, bovine; settings: for Fluorescence emission maximum of FACI-53 with ligand: 525 nm when no ligand present, excitation 400 nm; for Relative emission of FACI-53 at 495 nm, fold increase: emission at 495 nm
Procedure: as §1, §2
Titration of FACI-53 dissolved in binding buffer with the above mentioned acyl-CoA esters produced a smooth downward shift in fluorescence emission maximum from 525 nm when no ligand was present to 508, 503, 490, 492, 496 and 514 with increasing concentrations of CoA, C4:0-, C8:0-, C12:0-, C16:0- and C20:0-CoA respectively.

native bovine ACBP = target: T3, native bovine ACBP; settings: literature, read-out: KD for binding to native bovine ACBP, cited from earlier work
FACI53 [4] = target: T2, FACI53; assay: Isoelectrical focusing of acyl-CoA binding to FACI53; set-up: species or system bovine; settings: ligand in four-fold molar excess over protein
Procedure: All the gels were prepared with ligands (1-7) in four-fold molar excess over protein. […] The protein-ligand complex shifted to a pl around 3.8. Legend: 1: Water, 2: CoA-SH, 3: C4-CoA, 4: C8-CoA, 5: C12-CoA, 6: C16-CoA, 7: C20-CoA, 8: Broad pl Calibration Kit (pH 3-10).
as §1, with “The concentration of acyl-CoA in the aqueous phase was determined from the fluorescence emission sensitivities at 495 and 470 nm repectively essentially by the method described by (Grynkiewickz et. al.,1985, J. Biol. Chem. 260, 3440-3450) according to which:” left out

[5] = FACI-24 (1.5 μM) titrated with increasing CoA and acyl-CoA concentration, fitted binding curves, emission 460 nm, read-out: Kd (nM) ± S.E.

Molecule	Downshift in emission maximum of FACI-24 (FACI-24 [1]) [nm]	Kd (FACI-24 [2]; [5]) [nM]	Magnitude of emission of FACI-53, fold increase (FACI53 [3]) [fold]	Fluorescence emission maximum of FACI-53 with ligand (FACI53 [3]) [nm]	Relative emission of FACI-53 at 495 nm, fold increase (FACI53 [3]) [fold]	also measured
CCCC(=O)SCCNC(=O)CCNC(=O)[C@H](O)C(C)(C)COP(=O)(O)OP(=O)(O)OC[C@H]1O[C@@H](n2cnc3c(N)ncnc32)[C@H](O)[C@@H]1OP(=O)(O)O [C4:0-CoA]	16	1500 ± 223	1.8	503	2.8	–
CCCCCCCC(=O)SCCNC(=O)CCNC(=O)[C@H](O)C(C)(C)COP(=O)(O)OP(=O)(O)OC[C@H]1O[C@@H](n2cnc3c(N)ncnc32)[C@H](O)[C@@H]1OP(=O)(O)O [C8:0-CoA]	34	342 ± 31.9	2.9	490	4.8	–
CCCCCCCCCC(=O)SCCNC(=O)CCNC(=O)[C@H](O)C(C)(C)COP(=O)(O)OP(=O)(O)OC[C@H]1O[C@@H](n2cnc3c(N)ncnc32)[C@H](O)[C@@H]1OP(=O)(O)O [C10:0-CoA]	–	61.8 ± 2.49	–	–	–	–
CCCCCCCCCCCCCC(=O)SCCNC(=O)CCNC(=O)[C@H](O)C(C)(C)COP(=O)(O)OP(=O)(O)OC[C@H]1O[C@@H](n2cnc3c(N)ncnc32)[C@H](O)[C@@H]1OP(=O)(O)O [C14:0-CoA]	–	1.66 ± 0.26	–	–	–	Kd (FACI-24 [2]; titration equilibrium analysis, >0.1 M salt, read-out: KD for binding to FACI24): 1.7 nM; Kd (native bovine ACBP; isothermal titration microcalorimetry, >0.1 M salt): 16 nM
CCCCCCCCCCCCCCCCCC(=O)SCCNC(=O)CCNC(=O)[C@H](O)C(C)(C)COP(=O)(O)OP(=O)(O)OC[C@H]1O[C@@H](n2cnc3c(N)ncnc32)[C@H](O)[C@@H]1OP(=O)(O)O [C18:0-CoA]	–	1.65 ± 0.83	–	–	–	–
CCCCCCCCCCCCCCCCCCCC(=O)SCCNC(=O)CCNC(=O)[C@H](O)C(C)(C)COP(=O)(O)OP(=O)(O)OC[C@H]1O[C@@H](n2cnc3c(N)ncnc32)[C@H](O)[C@@H]1OP(=O)(O)O [C20:0-CoA]	46	–	0.8	514	0.8	Binding to FACI53 by isoelectrical focusing (FACI53 [4]): shown to bind; Fluorescence response of FACI-53 (FACI53 [3]): hardly responded
CC(C)(COP(=O)(O)OP(=O)(O)OC[C@H]1O[C@@H](n2cnc3c(N)ncnc32)[C@H](O)[C@@H]1OP(=O)(O)O)[C@@H](O)C(=O)NCCC(=O)NCCS [CoASH, Coenzyme A]	0	2450 ± 249	1.1	508	1.5	Fluorescence response of FACI-24 (FACI-24 [1]): Neither FACI24 or FACI53 respond significantly; Fold increase in FACI-24 fluorescence emission at 460 nm (FACI-24 [1]; emission at 460 nm): 3 fold; Kd (FACI-24 [2]; read-out: Kd for binding to FACI-24): 2500 nM and 2000 nM; Kd (native bovine ACBP): 2000 nM; Fluorescence response of FACI-53 (FACI53 [3]; listed as CoA): hardly responded; Fluorescence response of FACI-53 (FACI53 [3]; listed as free CoA): Neither FACI24 or FACI53 respond significantly
C18:1-CoA	–	0.59 ± 0.19	–	–	–	–
B1	–	–	–	–	–	Emission maximum of FACI53 on titration with ligand (FACI53 [3]; FIG. 3): 487 nm; Fluorescence emission maximum of FACI-53, no ligand present (FACI53 [3]; no ligand): 525 nm
B2	–	–	–	–	–	Emission maximum of FACI24 on titration with ligand (FACI-24 [1]; FIG. 2): 465 nm; Emission maximum of FACI-24 without ligand added (FACI-24 [1]; no ligand): 510 nm

— patent US20020142347A1, “Biosensor” (BIOSENSOR ApS, priority 2000, published 2002)
